Values of other authors in patent US20070122507A1, “Histone deacetylase and tumor necrosis factor converting enzyme inhibition” (priority 2005, published 2007).

System: R6/2 transgenic mouse models
Settings: HD in R6/2 transgenic mouse models

CCCC(=O)[O-].[Na+] [sodium butyrate]
motor deficits: reduces
neuropathological effects: reduces
survival: significantly enhances survival
